According to US9833497B2, “Human originated EGF domain proteins and use of the same” (CHENGDU SOURCEBIO LIMITED-LIABILITY COMPANY, priority 2013, dated 2017):

How the values were obtained:
Type in all cases: cell-based
[1] = tested on: Proteus mirabilis; experiment: MIC against Gram-negative bacteria: Proteus mirabilis; conditions: 5×10^5 CFU/mL; for MIC P. mirabilis: two-fold serial dilution
Outline: (§1)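 LB broth cultures at McFarland 0.5, spun down, resuspended, diluted to 5×10^5 CFU/mL final. Two-fold serial dilutions of purified human EGF domain proteins, triplicate. 37° C, 175 rpm shaking. Endpoint: no visible growth.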

[2] = tested on: Aeromonas hydrophila; experiment: MIC against Gram-negative bacteria: Aeromonas hydrophila; conditions: 5×10^5 CFU/mL; for MIC A. hydrophila: two-fold serial dilution
Outline: as §1

[3] = tested on: Enterobacter cloacae; experiment: MIC against Gram-negative bacteria: Enterobacter cloacae; conditions: 5×10^5 CFU/mL; for MIC E. cloacae: two-fold serial dilution
Outline: as §1

[4] = tested on: Serratia marcescens; experiment: MIC against Gram-negative bacteria: Serratia marcescens; conditions: 5×10^5 CFU/mL; for MIC S. marcescens: two-fold serial dilution
Outline: as §1

[5] = tested on: E. coli DH5α; experiment: Antibacterial activity: MIC and growth curve against E. coli DH5α in 96-well plate; conditions: minimal inhibitory concentration against E. coli DH5α; 96-well plate, 5×10^5 CFU/mL, 37° C., judged after 8 h
Outline: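 Log-phase bacteria (OD600 ~0.5) resuspended in LB at 5×10^5 CFU/mL, exposed to recombinant protein at 50, 25, 12.5 μg/mL final in triplicate, 37 °C shaking at 175 rpm. OD600 read every 30 min; MIC is lowest concentration showing no growth.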

[6] = tested on: Pseudomonas aeruginosa; experiment: MIC against Gram-negative bacteria: Pseudomonas aeruginosa; conditions: 5×10^5 CFU/mL; for MIC P. aeruginosa: two-fold serial dilution
Outline: as §1

[7] = tested on: Citrobacter diversus; experiment: MIC against Gram-negative bacteria: Citrobacter diversus; conditions: 5×10^5 CFU/mL; for MIC C. diversus: two-fold serial dilution
Outline: as §1

[8] = tested on: E. coli BL21; experiment: MIC against Gram-negative bacteria: E. coli BL21; conditions: 5×10^5 CFU/mL; for MIC E. coli BL21: two-fold serial dilution
Outline: as §1

[9] = tested on: Proteus vulgaris; experiment: MIC against Gram-negative bacteria: Proteus vulgaris; conditions: 5×10^5 CFU/mL; for MIC P. vulgaris: two-fold serial dilution
Outline: as §1

[10] = tested on: Klebsiella pneumonia; experiment: MIC against Gram-negative bacteria: Klebsiella pneumonia; conditions: 5×10^5 CFU/mL; for MIC K. pneumonia: two-fold serial dilution
Outline: as §1

[11] = tested on: Moraxella catarrhalis; experiment: MIC against Gram-negative bacteria: Moraxella catarrhalis; conditions: 5×10^5 CFU/mL; for MIC M. catarrhalis: two-fold serial dilution
Outline: as §1

[12] = P. mirabilis, 10 h cultivation at 37° C.
[13] = A. hydrophila, 10 h cultivation at 37° C.
[14] = E. cloacae, 10 h cultivation at 37° C.
[15] = S. marcescens, 10 h cultivation at 37° C.
[16] = P. aeruginosa, 10 h cultivation at 37° C.
[17] = C. diversus, 10 h cultivation at 37° C.
[18] = P. vulgaris, 10 h cultivation at 37° C.
[19] = K. pneumonia, 10 h cultivation at 37° C.
[20] = M. catarrhalis, 10 h cultivation at 37° C.

## PRT247 (GAAICQPPCRNGGSCVQPGRCRCPAGWRGDTCQ; listed as Homo sapiens)
[1]; [12]
  MIC (μg/mL) P. mirabilis: 25 µg/mL
[2]; [13]
  MIC (μg/mL) A. hydrophila: 12.5 µg/mL
[3]; [14]
  MIC (μg/mL) E. cloacae: 25 µg/mL
[4]; [15]
  MIC (μg/mL) S. marcescens: 25 µg/mL
[5]
  MIC: 12.5 µg/mL
[6]; [16]
  MIC (μg/mL) P. aeruginosa: 12.5 µg/mL
[7]; [17]
  MIC (μg/mL) C. diversus: 25 µg/mL
[8]; 10 h cultivation at 37° C.
  MIC (μg/mL) E. coli BL21: 12.5 µg/mL
[9]; [18]
  MIC (μg/mL) P. vulgaris: 12.5 µg/mL
[10]; [19]
  MIC (μg/mL) K. pneumonia: 12.5 µg/mL
[11]; [20]
  MIC (μg/mL) M. catarrhalis: 100 µg/mL

## PRT23 (KKNPCNAEFQNFCIHGECKYIEHLEAVTCKCQQEYFGERCG; listed as Homo sapiens)
[1]; Proteus mirabilis, 96-well plate, 37° C., 10 h
  MIC (μg/mL) P. mirabilis: 50 µg/mL
[2]; Aeromonas hydrophila, 96-well plate, 37° C., 10 h
  MIC (μg/mL) A. hydrophila: 12.5 µg/mL
[3]; Enterobacter cloacae, 96-well plate, 37° C., 10 h
  MIC (μg/mL) E. cloacae: 25 µg/mL
[4]; Serratia marcescens, 96-well plate, 37° C., 10 h
  MIC (μg/mL) S. marcescens: 50 µg/mL
[5]
  MIC: 12.5 µg/mL
[6]; Pseudomonas aeruginosa, 96-well plate, 37° C., 10 h
  MIC (μg/mL) P. aeruginosa: 12.5 µg/mL
[7]; Citrobacter diversus, 96-well plate, 37° C., 10 h
  MIC (μg/mL) C. diversus: 50 µg/mL
[8]; 96-well plate, 37° C., 10 h
  MIC (μg/mL) E. coli BL21: 25 µg/mL
[9]; Proteus vulgaris, 96-well plate, 37° C., 10 h
  MIC (μg/mL) P. vulgaris: 25 µg/mL
[10]; Klebsiella pneumonia, 96-well plate, 37° C., 10 h
  MIC (μg/mL) K. pneumonia: 12.5 µg/mL
[11]; Moraxella catarrhalis, 96-well plate, 37° C., 10 h
  MIC (μg/mL) M. catarrhalis: 25 µg/mL

## PRT1092 (ILLGCTHQQCLNNGTCIPHFQDGQHGFSCLCPSGYTGSLCE; listed as Homo sapiens)
[1]; 10 h cultivation at 37° C.
  MIC P. mirabilis: 50 µg/mL
[2]; 10 h cultivation at 37° C.
  MIC A. hydrophila: 12.5 µg/mL
[3]; 10 h cultivation at 37° C.
  MIC E. cloacae: 25 µg/mL
[4]; 10 h cultivation at 37° C.
  MIC S. marcescens: 25 µg/mL
[5]
  MIC: 25 µg/mL
[6]; 10 h cultivation at 37° C.
  MIC P. aeruginosa: 25 µg/mL
[7]; 10 h cultivation at 37° C.
  MIC C. diversus: 12.5 µg/mL
[8]; 10 h cultivation at 37° C.
  MIC E. coli BL21: 50 µg/mL
[9]; 10 h cultivation at 37° C.
  MIC P. vulgaris: 25 µg/mL
[10]; 10 h cultivation at 37° C.
  MIC K. pneumonia: 12.5 µg/mL
[11]; 10 h cultivation at 37° C.
  MIC M. catarrhalis: 25 µg/mL

## PRT200 (NFSTCLSSKEGTICSGNGVCSNELKCVCNRHWIGSDCN; listed as Homo sapiens)
[1]; [12]
  MIC (μg/mL) P. mirabilis: 12.5 µg/mL
[2]; [13]
  MIC (μg/mL) A. hydrophila: 25 µg/mL
[3]; [14]
  MIC (μg/mL) E. cloacae: 12.5 µg/mL
[4]; [15]
  MIC (μg/mL) S. marcescens: 12.5 µg/mL
[5]
  MIC: 12.5 µg/mL
[6]; [16]
  MIC (μg/mL) P. aeruginosa: 50 µg/mL
[7]; [17]
  MIC (μg/mL) C. diversus: 50 µg/mL
[8]; 10 h cultivation at 37° C.
  MIC (μg/mL) E. coli BL21: 25 µg/mL
[9]; [18]
  MIC (μg/mL) P. vulgaris: 50 µg/mL
[10]; [19]
  MIC (μg/mL) K. pneumonia: 25 µg/mL
[11]; [20]
  MIC (μg/mL) M. catarrhalis: 25 µg/mL

## PRT173 (CSSSPCSNGAKCVDLGDAYLCRCQAGFSGRHC; listed as Homo sapiens)
[1]; [12]
  MIC (μg/mL) P. mirabilis: 25 µg/mL
[2]; [13]
  MIC (μg/mL) A. hydrophila: 12.5 µg/mL
[3]; [14]
  MIC (μg/mL) E. cloacae: 25 µg/mL
[4]; [15]
  MIC (μg/mL) S. marcescens: 25 µg/mL
[5]
  MIC: 12.5 µg/mL
[6]; [16]
  MIC (μg/mL) P. aeruginosa: 12.5 µg/mL
[7]; [17]
  MIC (μg/mL) C. diversus: 25 µg/mL
[8]; 10 h cultivation at 37° C.
  MIC (μg/mL) E. coli BL21: 50 µg/mL
[9]; [18]
  MIC (μg/mL) P. vulgaris: 12.5 µg/mL
[10]; [19]
  MIC (μg/mL) K. pneumonia: 50 µg/mL
[11]; [20]
  MIC (μg/mL) M. catarrhalis: 50 µg/mL

## PRT563 (CVCNYLGTVQEHCNGSDCQCDKATGQCLCLPNVIGQNCDRCAPNTWQLASGTGCDP; listed as Homo sapiens)
[1]; 96-well plate, 37° C., 10 h
  MIC against P. mirabilis: 25 µg/mL
[2]; 96-well plate, 37° C., 10 h
  MIC against A. hydrophila: 12.5 µg/mL
[3]; 96-well plate, 37° C., 10 h
  MIC against E. cloacae: 25 µg/mL
[4]; 96-well plate, 37° C., 10 h
  MIC against S. marcescens: 25 µg/mL
[5]
  MIC: 25 µg/mL
[6]; 96-well plate, 37° C., 10 h
  MIC against P. aeruginosa: 25 µg/mL
[7]; 96-well plate, 37° C., 10 h
  MIC against C. diversus: 25 µg/mL
[8]; 96-well plate, 37° C., 10 h
  MIC against E. coli BL21: 12.5 µg/mL
[9]; 96-well plate, 37° C., 10 h
  MIC against P. vulgaris: 12.5 µg/mL
[10]; 96-well plate, 37° C., 10 h
  MIC against K. pneumonia: 50 µg/mL
[11]; 96-well plate, 37° C., 10 h
  MIC against M. catarrhalis: 50 µg/mL

## PRT1180 (DIDYCEPNPCQNGAQCYNRASDYFCKCPEDYEGKNCS; listed as Homo sapiens)
[1]; 10 h cultivation at 37° C.
  MIC P. mirabilis: 25 µg/mL
[2]; 10 h cultivation at 37° C.
  MIC A. hydrophila: 50 µg/mL
[3]; 10 h cultivation at 37° C.
  MIC E. cloacae: 12.5 µg/mL
[4]; 10 h cultivation at 37° C.
  MIC S. marcescens: 25 µg/mL
[5]
  MIC: 50 µg/mL
[6]; 10 h cultivation at 37° C.
  MIC P. aeruginosa: 50 µg/mL
[7]; 10 h cultivation at 37° C.
  MIC C. diversus: 25 µg/mL
[8]; 10 h cultivation at 37° C.
  MIC E. coli BL21: 12.5 µg/mL
[9]; 10 h cultivation at 37° C.
  MIC P. vulgaris: 50 µg/mL
[10]; 10 h cultivation at 37° C.
  MIC K. pneumonia: 25 µg/mL
[11]; 10 h cultivation at 37° C.
  MIC M. catarrhalis: 12.5 µg/mL
